The results in this text go back to patent US20210053957A1, “HERBICIDAL COMPOUNDS” (SYNGENTA PARTICIPATIONS AG, priority 2018, published 2021).

Experiment in all cases: Post-emergence efficacy, glasshouse spray test
Assay type in all cases: in vivo

Assay [1] concerns Amaranthus palmeri (AMAPA). As to conditions: Application Rate 500 g/Ha, evaluated after 13 days; for pest or weed control at 500 g/ha: Amaranthus palmeri, post-emergence, 312 h, read-out: Control of weed species after post-emergence application, AMAPA (100=total damage to plant; 0=no damage to plant). An outline of the steps:
(§1)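 Scoring 13 days after treatment ran 0 = no damage to 100 = plant killed. Spray solution: formula (I) dissolved in acetone with IF50 emulsifier/solvent mix, diluted with 0.25% or 1% sodium lauryl ether sulphate plus 1% ammonium sulphate, applied to 14-day-old glasshouse plants (24/16 °C, 14 h light, 65% humidity).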

Another assay concerns Setaia fabei (SETFA). As to conditions: Application Rate 500 g/Ha, evaluated after 13 days; for pest or weed control at 500 g/ha: Setaria faberi, post-emergence, 312 h, read-out: Control of weed species after post-emergence application, SETFA (100=total damage to plant; 0=no damage to plant). An outline of the steps: as §1
In assay [2] the test system is Echinochloa crus-galli (ECHCG). The conditions noted are these: Application Rate 500 g/Ha, evaluated after 13 days; for pest or weed control at 500 g/ha: Echinochloa crus-galli, post-emergence, 312 h, read-out: Control of weed species after post-emergence application, ECHCG (100=total damage to plant; 0=no damage to plant). Put shortly:
as §1

In assay [3] the test system is Digitaria sanguinalis (DIGSA). The conditions noted are these: Application Rate 500 g/Ha, evaluated after 13 days; for pest or weed control at 500 g/ha: Digitaria sanguinalis, post-emergence, 312 h, read-out: Control of weed species after post-emergence application, DIGSA (100=total damage to plant; 0=no damage to plant). Put shortly: as §1
Another assay has as its system Eleusine indica (ELEIN). As to conditions: Application Rate 500 g/Ha, evaluated after 13 days; for pest or weed control at 500 g/ha: Eleusine indica, post-emergence, 312 h, read-out: Control of weed species after post-emergence application, ELEIN (100=total damage to plant; 0=no damage to plant). An outline of the steps:
as §1

Assay [4] relates to Chenopodium album (CHEAL). As to conditions: Application Rate 500 g/Ha, evaluated after 13 days; for pest or weed control at 500 g/ha: Chenopodium album, post-emergence, 312 h, read-out: Control of weed species after post-emergence application, CHEAL (100=total damage to plant; 0=no damage to plant). An outline of the steps:
as §1

In assay [5] the test system is Euphorbia heterophylla (EPHHL). As to conditions: Application Rate 500 g/Ha, evaluated after 13 days; for pest or weed control at 500 g/ha: Euphorbia heterophylla, post-emergence, 312 h, read-out: Control of weed species after post-emergence application, EPHHL (100=total damage to plant; 0=no damage to plant). Put shortly: as §1
Assay [6] has as its system Ipomoea hederacea (IPOHE). The conditions noted are these: Application Rate 500 g/Ha, evaluated after 13 days; for pest or weed control at 500 g/ha: Ipomoea hederacea, post-emergence, 312 h, read-out: Control of weed species after post-emergence application, IPOHE (100=total damage to plant; 0=no damage to plant). Put shortly: as §1
The test system of a further assay is Lolium perenne (LOLPE). The conditions noted are these: Application Rate 500 g/Ha, evaluated after 13 days; for pest or weed control at 500 g/ha: Lolium perenne, post-emergence, 312 h, read-out: Control of weed species after post-emergence application, LOLPE (100=total damage to plant; 0=no damage to plant). An outline of the steps: as §1

Take `Cc1nc(-c2cc[n+](CCS(=O)(=O)[O-])nc2)sc1C` [Compound A17]: the pest or weed control at 500 g/ha in [1] turned out to be 30%; in the assay with Setaia fabei (SETFA), 50%; in assay [2] it was 40%; in assay [3] it was 50%; in the assay with Eleusine indica (ELEIN) it was 60%; in assay [4], 30%. In addition, the results for the pest or weed control at 500 g/ha (in assay [5]; in assay [6]; in the assay with Lolium perenne (LOLPE)) were 40%, 30% and 50%, respectively.

Regarding `O=S(=O)([O-])CC[n+]1ccc(-c2nc(C(F)(F)F)cs2)cn1` [Compound A18], the pest or weed control at 500 g/ha in assay [1] was 90%; with Setaia fabei (SETFA), 40%; in assay [2], 30%; in [3], 30%; with Eleusine indica (ELEIN) it was 30%; in [4] it was 10%. Further, the values for the pest or weed control at 500 g/ha (in assay [5]; in assay [6]; in the assay on Lolium perenne (LOLPE)) were 50%, 30% and 40%, respectively.

For `O=S(=O)([O-])CC[n+]1ccc(-c2ncco2)cn1` [Compound A19], the pest or weed control at 500 g/ha in assay [1] came to 40%; in the assay on Setaia fabei (SETFA), 60%; in [2], 80%; in assay [3], 70%; in the assay with Eleusine indica (ELEIN), 100%; in assay [4], 100%. Moreover, the pest or weed control at 500 g/ha in assay [5] came to 100%; in [6] it was 70%; with Lolium perenne (LOLPE) it was 90%.

In the case of `CCOC(=O)CC[n+]1ccc(-c2cocn2)cn1` [Compound A20], the pest or weed control at 500 g/ha in assay [1] is 40%; with Setaia fabei (SETFA) it was 20%; in assay [2], 30%; in assay [3] it was 60%; in the assay with Eleusine indica (ELEIN), 50%; in assay [4] it was 20%. For the same molecule, the pest or weed control at 500 g/ha (in [5]; in assay [6]; in the assay on Lolium perenne (LOLPE)) was 10% throughout.

`CC(C)(C)COS(=O)(=O)CC[n+]1ccc(-c2cocn2)cn1` [Compound A21, 2,2-dimethylpropyl 2-(4-oxazol-4-ylpyridazin-1-ium-1-yl)ethanesulfonate; 2,2,2-trifluoroacetate]: the pest or weed control at 500 g/ha in [1] is 10%; in the assay on Setaia fabei (SETFA) it was 10%; in assay [2], 10%; in [3] it was 10%; in the assay on Eleusine indica (ELEIN) it was 10%; in assay [4], 40%. Further, the pest or weed control at 500 g/ha was found to be 40% in [5], 10% in [6] and 0% with Lolium perenne (LOLPE).

Consider `O=S(=O)([O-])CC[n+]1ccc(-c2cocn2)cn1` [Compound A22, 2-(4-oxazol-4-ylpyridazin-1-ium-1-yl)ethanesulfonate], for which the pest or weed control at 500 g/ha in assay [1] was found to be 30%; in the assay with Setaia fabei (SETFA) it was 20%; in assay [2] it was 20%; in [3] it was 20%; in the assay with Eleusine indica (ELEIN), 20%; in assay [4] it was 20%. In addition, the pest or weed control at 500 g/ha stood at 30% in assay [5], 10% in assay [6] and 10% in the assay on Lolium perenne (LOLPE).

`CC(C)c1csc(-c2cc[n+](CCS(=O)(=O)O)nc2)n1` [Compound A23]: the “Control of weed species after post-emergence application, AMAPA (100=total damage to plant; 0=no damage to plant)” value in assay [1] is recorded as 50. Moreover, the “Control of weed species after post-emergence application, SETFA (100=total damage to plant; 0=no damage to plant)” value in the assay with Setaia fabei (SETFA) is given as 40. Further, the “Control of weed species after post-emergence application, ECHCG (100=total damage to plant; 0=no damage to plant)” value in assay [2] amounted to 30. Besides, the “Control of weed species after post-emergence application, DIGSA (100=total damage to plant; 0=no damage to plant)” value in [3] turned out to be 50. Besides, the “Control of weed species after post-emergence application, ELEIN (100=total damage to plant; 0=no damage to plant)” value in the assay on Eleusine indica (ELEIN) came out at 60. In addition, the “Control of weed species after post-emergence application, CHEAL (100=total damage to plant; 0=no damage to plant)” value in assay [4] is 10. In addition, in assay [5], the “Control of weed species after post-emergence application, EPHHL (100=total damage to plant; 0=no damage to plant)” value was 70. Further, the “Control of weed species after post-emergence application, IPOHE (100=total damage to plant; 0=no damage to plant)” value in [6] is 30. Further, the “Control of weed species after post-emergence application, LOLPE (100=total damage to plant; 0=no damage to plant)” value with Lolium perenne (LOLPE) worked out at 40.

As to `O=S(=O)([O-])CC[n+]1ccc(-c2nc(Cl)cs2)cn1` [Compound A25], the pest or weed control at 500 g/ha in [1] turned out to be 80%; with Setaia fabei (SETFA) it was 40%; in assay [2], 30%; in assay [3] it was 40%; in the assay on Eleusine indica (ELEIN), 40%; in assay [4], 70%. Also, the pest or weed control at 500 g/ha in [5] amounted to 80%; in assay [6] it was 40%; with Lolium perenne (LOLPE), 20%.

Turning to `Cn1ncnc1-c1cc[n+](CCC(=O)O)nc1` [Compound A27], the pest or weed control at 500 g/ha in [1] came to 100%; with Setaia fabei (SETFA), 90%; in assay [2] it was 90%; in assay [3], 90%; with Eleusine indica (ELEIN) it was 50%; in assay [4] it was 90%. The results for the pest or weed control at 500 g/ha (in assay [5]; in assay [6]; in the assay with Lolium perenne (LOLPE)) were 90%, 70% and 30%, respectively.

As to `Cn1nc(-c2cc[n+](CCS(=O)(=O)[O-])nc2)cc1C(F)(F)F` [Compound A29], the pest or weed control at 500 g/ha in assay [1] amounted to 20%; with Setaia fabei (SETFA), 20%; in [2] it was 20%; in [3] it was 30%; in the assay on Eleusine indica (ELEIN) it was 30%; in assay [4], 50%. The pest or weed control at 500 g/ha (in assay [5]; in assay [6]; in the assay with Lolium perenne (LOLPE)) was 20% throughout.

With `Cn1nc(C(F)(F)F)cc1-c1cc[n+](CCS(=O)(=O)[O-])nc1` [Compound A30], the pest or weed control at 500 g/ha in assay [1] is 80%; in the assay with Setaia fabei (SETFA), 40%; in assay [2], 20%; in assay [3] it was 30%; with Eleusine indica (ELEIN), 40%; in assay [4], 40%. Also, the values for the pest or weed control at 500 g/ha (in [5]; in assay [6]; in the assay on Lolium perenne (LOLPE)) were 40%, 20% and 50%, respectively.

Regarding `Cn1ccnc1-c1cc[n+](CCC(=O)O)nc1` [Compound A31, 3-[4-(1-methylimidazol-2-yl)pyridazin-1-ium-1-yl]propanoic acid; 2,2,2-trifluoroacetate], the pest or weed control at 500 g/ha is 30% in assay [1]; 60% in the assay on Setaia fabei (SETFA); 40% in assay [2]; 50% in assay [3]; 50% with Eleusine indica (ELEIN); 20% in assay [4]. The results for the pest or weed control at 500 g/ha (in assay [5]; in [6]; in the assay on Lolium perenne (LOLPE)) were 30%, 10% and 20%, respectively.

Turning to `O=C(O)CC[n+]1ccc(-c2ncco2)cn1` [Compound A32], the pest or weed control at 500 g/ha in [1] came to 80%; in the assay on Setaia fabei (SETFA), 80%; in assay [2] it was 90%; in [3], 90%; in the assay with Eleusine indica (ELEIN), 90%; in assay [4], 90%. The pest or weed control at 500 g/ha in assay [5] stood at 80%; in [6], 60%; in the assay with Lolium perenne (LOLPE), 40%.

Regarding `COc1cc(-c2cc[n+](CCC(=O)O)nc2)sn1` [Compound A33], the pest or weed control at 500 g/ha in [1] came to 100%; in the assay on Setaia fabei (SETFA), 30%; in assay [2], 20%; in assay [3], 70%; with Eleusine indica (ELEIN), 50%; in assay [4], 70%. The figures for the pest or weed control at 500 g/ha (in assay [5]; in [6]; in the assay with Lolium perenne (LOLPE)) were 80%, 10% and 30%, respectively.
